Laboratory results reported in patent publication US8420312B2, “Genes associated with canine osteoarthritis and related methods and compositions” (Nestec S.A., priority 2004, dated 2013).

Legend:
Assay type in all cases: cell-based, canine
[1] = tested on: OA-Associated Genes; experiment: Microarray analysis of chondrocyte beads treated with glucosamine; settings: summary statement, Tables 13-18
Description: (§1) Microarray probes were generated by PCR-amplifying clones isolated from differential display. Probes were spotted in duplicate onto poly-L-lysine coated slides using a GMS417 (Affymetrix) arrayer. Osteoarthritic cartilage samples were obtained from the femoral heads of clinically diagnosed canines undergoing total […] replacement. RNA was hybridized to the slides using the HC ExpressArray (Digene) kit and visualized using a GMS418 (Affymetrix) scanner. The Imagene (Biodiscovery) program was used for spot finding and subsequent data analysis was performed using GeneSight (Biodiscovery). Expression levels are represented after background subtraction, log(base 2) transformation and global slide signal normalization. […]
(§2) Scanned images representing RNA transcripts bound to specific clones were quantified and checked for spot quality control using Imagene analysis software (BioDiscovery). Quantified images were analyzed using Genesight analysis software (BioDiscovery). The analysis represented subtraction of background surrounding the spots, averaging spot replicates, deletion of clone information representing clone hybridization signals not greater than 200 above background on all samples, log (base 2) transformation and global normalization of each slide (values expressed as percent of average spot intensity). […]

[2] = tested on: OA-Associated Genes; experiment: Microarray analysis of chondrocyte beads treated with 1,25 D3 or 24,25 D3; settings: summary statement, Tables 19-20
Description: Microarray probes were generated by PCR-amplifying clones isolated from differential display. Probes were spotted in duplicate onto poly-L-lysine coated slides using a GMS417 (Affymetrix) arrayer. Osteoarthritic cartilage samples were obtained from the femoral heads of clinically diagnosed canines undergoing total […] replacement. RNA was hybridized to the slides using the HC ExpressArray ([…]) kit and visualized using a GMS418 (Affymetrix) scanner. The […] (Biodiscovery) program was used for spot finding and subsequent data analysis was performed using GeneSight (Biodiscovery). Expression levels are represented after background subtraction, log(base 2) transformation and global slide signal normalization. […] Scanned images representing RNA transcripts bound to specific clones were quantified and checked for spot quality control using […] analysis software (BioDiscovery). Quantified images were analyzed using […] analysis software (BioDiscovery). The analysis represented subtraction of background surrounding the spots, averaging spot replicates, deletion of clone information representing clone hybridization signals not greater than 200 above background on all samples, log (base 2) transformation and global normalization of each slide (values expressed as percent of average spot intensity). […]

[3] = tested on: OA-Associated Genes; experiment: Microarray analysis of chondrocytes enriched with EPA or AA; settings: summary statement, Tables 21-23
Description: as §1, §2

[4] = tested on: OA-Associated Genes; experiment: Microarray analysis of chondrocyte beads treated with chondroitin sulfate; settings: summary statement, Tables 7-12
Description: as §1, §2

N[C@H]1C(O)O[C@H](CO)[C@@H](O)[C@@H]1O (some centres unmarked) [Glucosamine, glucosamine]
effect on OA-associated genes [1]: have an effect on a variety of OA-associated genes

C=C1/C(=C\C=C2/CCC[C@]3(C)[C@@H]([C@H](C)CCCC(C)(C)O)CC[C@@H]23)C[C@@H](O)C[C@@H]1O [1α,25-dihydroxyvitamin D3]
effect on expression of OA-related genes [2]: affected the expression of OA-related genes

CCCCC/C=C\C/C=C\C/C=C\C/C=C\CCCC(=O)O [arachidonic acid (AA), arachidonic acid]
effect on OA-related genes [3]: affect OA-related genes

C=C1CC[C@H](O)C/C1=C/C=C1\CCC[C@]2(C)[C@@H]([C@H](C)CC[C@@H](O)C(C)(C)O)CC[C@@H]12 [24R,25-dihydroxyvitamin D3]
effect on expression of OA-related genes [2]: affected the expression of OA-related genes

chondroitin sulfate
effect on OA-associated genes [4]: have an effect on a wide variety of OA-associated genes
